Assay results from publication PMC6858373 (Scientific Reports, 2019).
Where two headings read alike, the source gives them in different places.

Columns and labels:
[1] = target: T1, FGF14:Nav1.6 C-tail complex (Homo sapiens, UniProt Q92915+Q9UQD0); test: Split-luciferase complementation assay (LCA) in Clone V double stable HEK293 cells; type: cell-based; conditions: for Split Luciferase Assay % Lum Set 1 / Split Luciferase Assay Z-score Set 1: biological replicate Set 1; for Split Luciferase Assay % Lum Set 1 / Split Luciferase Assay %Lum Set 2: normalized to on-plate 0.3% DMSO controls (n=16 per plate); for Split Luciferase Assay %Lum Set 2 / Split Luciferase Assay Z-score Set 2: biological replicate Set 2; for Split Luciferase Assay Z-score Set 1 / Split Luciferase Assay Z-score Set 2: normalized to on-plate 0.3% DMSO controls; for Split Luciferase Assay %Lum Avg: average of Set 1 and Set 2, normalized to 0.3% DMSO controls
T1 construct: polymerase chain reaction (PCR) amplification of the FGF14 open reading frame (nt 1–855); C-terminal fragment of Nav1.6 (amino acids 1763–1976) fused with CD4ΔC-tail (amino acids 1–395); expressed in transfected cells

[2] = target: full-length P. pyralis luciferase (Photinus pyralis, UniProt P08659, K549A/L550V/N119G/N50D/S548I); type: cell-based
[3] = CC_NCI screening, LCA luminescence
[4] = CC_NCI screening, full-length luciferase counter-screen luminescence, normalized to on-plate 0.3% DMSO controls
[5] = CC_NCI screening, full-length luciferase counter-screen, normalized to on-plate 0.3% DMSO controls
[6] = CC_NCI screening, normalized to on-plate 0.3% DMSO controls

T1 sequence (Q92915 1-252 isoform Q92915-2): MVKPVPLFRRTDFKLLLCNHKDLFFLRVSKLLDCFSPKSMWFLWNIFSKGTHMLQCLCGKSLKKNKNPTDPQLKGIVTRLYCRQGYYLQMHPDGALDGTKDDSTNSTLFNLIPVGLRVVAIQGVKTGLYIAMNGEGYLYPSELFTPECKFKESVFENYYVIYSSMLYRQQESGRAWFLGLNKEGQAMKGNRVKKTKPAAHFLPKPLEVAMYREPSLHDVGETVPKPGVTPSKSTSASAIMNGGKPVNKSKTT
T1 sequence (Q9UQD0 1763-1976 limits assumed): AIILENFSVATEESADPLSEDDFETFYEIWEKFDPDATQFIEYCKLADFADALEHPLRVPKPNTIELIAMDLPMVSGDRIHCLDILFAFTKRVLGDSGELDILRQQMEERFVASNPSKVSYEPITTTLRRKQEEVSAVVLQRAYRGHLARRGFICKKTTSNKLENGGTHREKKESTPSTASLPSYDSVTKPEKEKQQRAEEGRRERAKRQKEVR
full-length P. pyralis luciferase, sequence (P08659 whole entry N50D/N119G/S548I/K549A/L550V, looked up): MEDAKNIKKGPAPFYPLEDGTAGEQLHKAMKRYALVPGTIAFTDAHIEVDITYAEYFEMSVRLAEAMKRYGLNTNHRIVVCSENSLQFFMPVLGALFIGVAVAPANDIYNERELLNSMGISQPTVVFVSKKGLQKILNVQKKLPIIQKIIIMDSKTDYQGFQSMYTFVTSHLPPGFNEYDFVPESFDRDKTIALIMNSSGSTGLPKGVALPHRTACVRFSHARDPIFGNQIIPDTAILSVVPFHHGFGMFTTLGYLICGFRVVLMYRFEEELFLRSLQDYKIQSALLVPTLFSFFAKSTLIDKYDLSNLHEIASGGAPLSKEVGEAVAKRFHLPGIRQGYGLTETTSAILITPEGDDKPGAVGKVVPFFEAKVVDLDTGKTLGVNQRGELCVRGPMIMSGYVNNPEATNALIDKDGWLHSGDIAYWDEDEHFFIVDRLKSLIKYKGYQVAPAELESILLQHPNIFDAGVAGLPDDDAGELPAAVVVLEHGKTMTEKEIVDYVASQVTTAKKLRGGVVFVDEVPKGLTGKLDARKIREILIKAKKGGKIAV

Structure (SMILES) | Split Luciferase Assay % Lum Set 1 [1, 3] [%] | Split Luciferase Assay %Lum Set 2 [1, 3] [%] | Split Luciferase Assay Z-score Set 1 ([1]; CC_NCI screening, LCA) | Split Luciferase Assay Z-score Set 2 ([1]; CC_NCI screening, LCA) | Split Luciferase Assay %Lum Avg ([1]; CC_NCI screening) [%] | Luciferase Assay % Lum [2, 4] [%] | Luciferase Assay Z-score [2, 5] | Toxicity Assay % Fluor (Clone V cells; human, 16 h, 30 µM) [%] | Toxicity Assay Z-score (Clone V cells; human, 16 h, 30 µM) | Toxicity Assay % Fluor (Clone V cells) [%] | Toxicity Assay Z-score (Clone V cells) | also measured
COc1cc2nccc(Oc3ccc(NC(=O)C4(C(=O)Nc5ccc(F)cc5)CC4)cc3)c2cc1OC [Cabozantinib] | 27.50 | 27.05 | -5.86 | -5.94 | 27.28 | 67.75 | -4.13 | 93.87 | -0.86 | – | – | –
N.N.O=C([O-])C1(C(=O)[O-])CCC1.[Pt+2] [Carboplatin] | – | – | – | – | – | – | – | – | – | – | – | Split Luciferase Assay Z-score Set 1 ([1]; CC_NCI screening): 0.82; Split Luciferase Assay % Lum Set 1 ([1]; CC_NCI screening): 110.12%; Split Luciferase Assay Z-score Set 2 ([1]; CC_NCI screening): 1.17; Split Luciferase Assay %Lum Set 2 ([1]; CC_NCI screening): 114.43%; Split Luciferase Assay %Lum Avg [1]: 112.28%; Luciferase Assay % Lum (full-length luciferase counter-screen) [2, 6]: 96.43%; Luciferase Assay Z-score (full-length luciferase counter-screen) [2, 6]: -0.46; Toxicity Assay % Fluor (CTB cell viability fluorescence) (Clone V cells): 109.23%; Toxicity Assay Z-score (CTB cell viability) (Clone V cells): 1.29
Cc1ccc(-c2cc(C(F)(F)F)nn2-c2ccc(S(N)(=O)=O)cc2)cc1 [Celecoxib] | 43.81 | 44.73 | -4.54 | -4.50 | 44.27 | 60.07 | -5.11 | 88.16 | -1.66 | – | – | –
Nc1nc(Cl)nc2c1ncn2[C@@H]1O[C@H](CO)[C@@H](O)[C@@H]1F [Clofarabine] | 146.00 | 131.08 | 3.72 | 2.53 | 138.54 | – | – | 94.15 | -0.82 | – | – | Luciferase Assay % Lum [2]: 100.89%; Luciferase Assay Z-score [2]: 0.11
OCC1OC(O)CC(O)C1O (stereo not drawn) [Compound 2DG] | 104.69 | 130.04 | 0.38 | 2.44 | 117.36 | 91.76 | -1.06 | – | – | 93.82 | -0.86 | –
C=CCNC1=C2C[C@@H](C)C[C@H](OC)[C@H](O)[C@@H](C)/C=C(\C)[C@H](OC(N)=O)[C@@H](OC)/C=C\C=C(/C)C(=O)NC(=CC1=O)C2=O [Compound 17-AAG] | 45.98 | 41.61 | -4.37 | -4.75 | 43.80 | 80.45 | -2.50 | – | – | 88.49 | -1.61 | –
CO[C@H]1/C=C\C=C(/C)C(=O)NC2=CC(=O)C(NCCN(C)C)=C(C[C@@H](C)C[C@H](OC)[C@H](O)[C@@H](C)/C=C(\C)[C@@H]1OC(N)=O)C2=O [Compound 17-DMAG] | 40.55 | 65.54 | -4.80 | -2.80 | 53.04 | 84.54 | -1.98 | – | – | 54.29 | -6.39 | –
N#Cc1c(O)c2c(-c3ccc(-c4ccccc4O)cc3)csc2[nH]c1=O [Compound A-769662] | – | – | – | – | – | – | – | – | – | – | – | Split Luciferase Assay Z-score Set 1 ([1]; CC_NCI screening): 1.52; Split Luciferase Assay % Lum Set 1 ([1]; CC_NCI screening): 118.82%; Split Luciferase Assay Z-score Set 2 ([1]; CC_NCI screening): 1.01; Split Luciferase Assay %Lum Set 2 ([1]; CC_NCI screening): 112.35%; Split Luciferase Assay %Lum Avg [1]: 115.59%; Luciferase Assay % Lum (full-length luciferase counter-screen) [2, 6]: 79.85%; Luciferase Assay Z-score (full-length luciferase counter-screen) [2, 6]: -2.58; Toxicity Assay % Fluor (CTB cell viability fluorescence) (Clone V cells): 107.48%; Toxicity Assay Z-score (CTB cell viability) (Clone V cells): 1.05
